Experimental data: the kinase profiling compilation of Christmann-Franck et al. (2016)

What was measured:
Assay in all cases: KINOMEscan competition binding
Conditions in all cases: compound 10.0 µM
ANKK1 (human) = ANKK1 (human) (UniProt Q8NFD2)
BRAF (human) = BRAF (human) (UniProt P15056)
CDK5 (human) = CDK5 (human) (UniProt Q00535)
CDK7 (human) = CDK7 (human) (UniProt P50613)
CDKL3 (human) = CDKL3 (human) (UniProt Q8IVW4)
CLK3 (human) = CLK3 (human) (UniProt P49761)
CSNK1G1 (human) = CSNK1G1 (human) (UniProt Q9HCP0)
DDR1 (human) = DDR1 (human) (UniProt Q08345)
[1] = test system: EGFR (human), P00533 [G719C]
[2] = test system: EIF2AK4 KD2 (human), Q9P2K8 [S808G]
EPHA7 (human) = EPHA7 (human) (UniProt Q15375)
EPHA8 (human) = EPHA8 (human) (UniProt P29322)
Sequence of EPHA8 (human) (P29322 whole entry, looked up): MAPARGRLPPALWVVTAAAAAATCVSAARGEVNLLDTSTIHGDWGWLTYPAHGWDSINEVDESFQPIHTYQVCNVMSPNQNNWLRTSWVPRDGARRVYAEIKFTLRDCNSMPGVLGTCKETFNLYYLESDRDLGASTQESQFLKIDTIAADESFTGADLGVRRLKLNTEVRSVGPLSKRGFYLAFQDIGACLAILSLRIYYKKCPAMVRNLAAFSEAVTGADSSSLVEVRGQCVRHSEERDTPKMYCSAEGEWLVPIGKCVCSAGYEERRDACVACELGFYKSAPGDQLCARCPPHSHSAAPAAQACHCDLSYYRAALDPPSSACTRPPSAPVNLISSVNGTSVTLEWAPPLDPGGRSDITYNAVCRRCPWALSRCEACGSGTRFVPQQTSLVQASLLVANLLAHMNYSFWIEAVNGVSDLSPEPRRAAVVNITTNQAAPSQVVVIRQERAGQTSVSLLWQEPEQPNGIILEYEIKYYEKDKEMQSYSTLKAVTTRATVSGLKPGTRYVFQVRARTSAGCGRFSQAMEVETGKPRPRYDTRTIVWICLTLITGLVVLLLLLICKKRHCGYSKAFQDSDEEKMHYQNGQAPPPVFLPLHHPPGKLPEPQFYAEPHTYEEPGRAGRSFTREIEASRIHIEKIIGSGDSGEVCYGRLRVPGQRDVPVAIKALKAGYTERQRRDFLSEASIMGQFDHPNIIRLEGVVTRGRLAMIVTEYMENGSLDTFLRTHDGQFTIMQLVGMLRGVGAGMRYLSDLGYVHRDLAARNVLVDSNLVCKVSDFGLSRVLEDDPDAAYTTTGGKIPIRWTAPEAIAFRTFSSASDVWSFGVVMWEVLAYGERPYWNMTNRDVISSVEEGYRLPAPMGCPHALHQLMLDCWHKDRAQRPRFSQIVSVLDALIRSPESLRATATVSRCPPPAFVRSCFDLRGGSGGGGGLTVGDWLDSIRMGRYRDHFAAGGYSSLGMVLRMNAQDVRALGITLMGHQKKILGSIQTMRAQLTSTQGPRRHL

ERBB2 (human) = ERBB2 (human) (UniProt P04626)
ERBB4 (human) = ERBB4 (human) (UniProt Q15303)
FGFR2 (human) = FGFR2 (human) (UniProt P21802)
FRK (human) = FRK (human) (UniProt P42685)
GRK4 (human) = GRK4 (human) (UniProt P32298)
GRK7 (human) = GRK7 (human) (UniProt Q8WTQ7)
MAP2K2 (human) = MAP2K2 (human) (UniProt P36507)
Sequence of MAP2K2 (human) (P36507 whole entry, looked up): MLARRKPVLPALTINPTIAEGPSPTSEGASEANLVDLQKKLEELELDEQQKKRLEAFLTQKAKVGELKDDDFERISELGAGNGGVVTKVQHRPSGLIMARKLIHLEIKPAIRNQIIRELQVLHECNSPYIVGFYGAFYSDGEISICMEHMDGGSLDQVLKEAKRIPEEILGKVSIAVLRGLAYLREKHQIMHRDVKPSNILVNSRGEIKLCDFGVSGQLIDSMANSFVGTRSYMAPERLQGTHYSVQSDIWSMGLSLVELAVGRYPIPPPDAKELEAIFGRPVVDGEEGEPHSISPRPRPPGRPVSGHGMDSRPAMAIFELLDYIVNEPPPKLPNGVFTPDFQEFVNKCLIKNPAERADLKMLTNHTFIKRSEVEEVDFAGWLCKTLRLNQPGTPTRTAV

MAP3K3 (human) = MAP3K3 (human) (UniProt Q99759)
MAPK1 (human) = MAPK1 (human) (UniProt P28482)
NEK1 (human) = NEK1 (human) (UniProt Q96PY6)
NEK11 (human) = NEK11 (human) (UniProt Q8NG66)
Sequence of NEK11 (human) (Q8NG66 whole entry, looked up): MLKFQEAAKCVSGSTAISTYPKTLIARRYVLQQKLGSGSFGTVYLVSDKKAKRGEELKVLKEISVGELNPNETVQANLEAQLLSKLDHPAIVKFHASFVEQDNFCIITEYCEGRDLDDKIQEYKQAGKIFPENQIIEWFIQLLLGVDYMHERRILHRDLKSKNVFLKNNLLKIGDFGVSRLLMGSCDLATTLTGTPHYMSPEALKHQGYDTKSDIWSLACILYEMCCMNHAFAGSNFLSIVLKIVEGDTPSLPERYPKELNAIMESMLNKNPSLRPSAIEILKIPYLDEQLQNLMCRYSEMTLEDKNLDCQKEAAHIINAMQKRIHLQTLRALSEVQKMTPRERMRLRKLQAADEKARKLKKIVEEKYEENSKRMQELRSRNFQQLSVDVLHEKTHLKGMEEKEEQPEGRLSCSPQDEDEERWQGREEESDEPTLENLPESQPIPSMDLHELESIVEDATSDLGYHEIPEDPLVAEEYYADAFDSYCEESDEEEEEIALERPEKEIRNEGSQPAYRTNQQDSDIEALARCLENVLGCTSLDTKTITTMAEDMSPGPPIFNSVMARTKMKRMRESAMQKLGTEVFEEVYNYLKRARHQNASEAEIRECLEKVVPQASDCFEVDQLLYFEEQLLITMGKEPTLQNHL

PAK6 (human) = PAK6 (human) (UniProt Q9NQU5)
PIM1 (human) = PIM1 (human) (UniProt P11309)
PKN1 (human) = PKN1 (human) (UniProt Q16512)
PTK2 (human) = PTK2 (human) (UniProt Q05397)
RIOK1 (human) = RIOK1 (human) (UniProt Q9BRS2)
RIPK1 (human) = RIPK1 (human) (UniProt Q13546)
RPS6KA1 KD1 (human) = RPS6KA1 KD1 (human) (UniProt Q15418)
Sequence of RPS6KA1 KD1 (human) (Q15418 whole entry, looked up): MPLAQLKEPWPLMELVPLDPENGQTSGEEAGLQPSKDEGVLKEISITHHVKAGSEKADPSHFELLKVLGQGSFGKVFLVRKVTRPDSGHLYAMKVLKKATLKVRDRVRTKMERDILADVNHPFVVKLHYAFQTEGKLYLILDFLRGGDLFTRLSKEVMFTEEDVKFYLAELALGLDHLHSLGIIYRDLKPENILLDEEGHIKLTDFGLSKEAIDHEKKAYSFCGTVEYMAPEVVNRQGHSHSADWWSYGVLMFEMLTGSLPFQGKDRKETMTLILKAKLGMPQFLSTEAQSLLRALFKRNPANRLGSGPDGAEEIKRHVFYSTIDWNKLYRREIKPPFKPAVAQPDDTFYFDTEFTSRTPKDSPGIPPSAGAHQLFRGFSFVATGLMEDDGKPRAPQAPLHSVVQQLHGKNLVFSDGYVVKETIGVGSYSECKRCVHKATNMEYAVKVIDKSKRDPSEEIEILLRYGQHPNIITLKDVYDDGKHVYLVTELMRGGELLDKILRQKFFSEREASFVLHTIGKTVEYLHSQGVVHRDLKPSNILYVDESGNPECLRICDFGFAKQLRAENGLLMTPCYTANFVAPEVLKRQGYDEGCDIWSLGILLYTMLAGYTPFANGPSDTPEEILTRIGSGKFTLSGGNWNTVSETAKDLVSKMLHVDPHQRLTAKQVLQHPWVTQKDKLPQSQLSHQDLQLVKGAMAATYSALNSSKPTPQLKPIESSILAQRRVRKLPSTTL

RPS6KA3 KD1 (human) = RPS6KA3 KD1 (human) (UniProt P51812)
RPS6KB1 (human) = RPS6KB1 (human) (UniProt P23443)
SGK3 (human) = SGK3 (human) (UniProt Q96BR1)
STK16 (human) = STK16 (human) (UniProt O75716)
Sequence of STK16 (human) (O75716 whole entry, looked up): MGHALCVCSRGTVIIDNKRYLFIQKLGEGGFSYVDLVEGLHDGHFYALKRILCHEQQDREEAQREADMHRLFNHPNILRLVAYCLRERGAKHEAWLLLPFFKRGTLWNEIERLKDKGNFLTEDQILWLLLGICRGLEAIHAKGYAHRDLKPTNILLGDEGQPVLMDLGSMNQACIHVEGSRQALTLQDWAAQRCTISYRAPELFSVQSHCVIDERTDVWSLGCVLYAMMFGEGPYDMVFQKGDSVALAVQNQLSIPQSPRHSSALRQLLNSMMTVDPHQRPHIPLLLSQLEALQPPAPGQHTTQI

STK17B (human) = STK17B (human) (UniProt O94768)
SYK (human) = SYK (human) (UniProt P43405)
TIE1 (human) = TIE1 (human) (UniProt P35590)
[3] = molecular target: TYK2 JH2 pseudokinase (human) (UniProt P29597)
Sequence of TYK2 JH2 pseudokinase (human) (P29597 whole entry, looked up): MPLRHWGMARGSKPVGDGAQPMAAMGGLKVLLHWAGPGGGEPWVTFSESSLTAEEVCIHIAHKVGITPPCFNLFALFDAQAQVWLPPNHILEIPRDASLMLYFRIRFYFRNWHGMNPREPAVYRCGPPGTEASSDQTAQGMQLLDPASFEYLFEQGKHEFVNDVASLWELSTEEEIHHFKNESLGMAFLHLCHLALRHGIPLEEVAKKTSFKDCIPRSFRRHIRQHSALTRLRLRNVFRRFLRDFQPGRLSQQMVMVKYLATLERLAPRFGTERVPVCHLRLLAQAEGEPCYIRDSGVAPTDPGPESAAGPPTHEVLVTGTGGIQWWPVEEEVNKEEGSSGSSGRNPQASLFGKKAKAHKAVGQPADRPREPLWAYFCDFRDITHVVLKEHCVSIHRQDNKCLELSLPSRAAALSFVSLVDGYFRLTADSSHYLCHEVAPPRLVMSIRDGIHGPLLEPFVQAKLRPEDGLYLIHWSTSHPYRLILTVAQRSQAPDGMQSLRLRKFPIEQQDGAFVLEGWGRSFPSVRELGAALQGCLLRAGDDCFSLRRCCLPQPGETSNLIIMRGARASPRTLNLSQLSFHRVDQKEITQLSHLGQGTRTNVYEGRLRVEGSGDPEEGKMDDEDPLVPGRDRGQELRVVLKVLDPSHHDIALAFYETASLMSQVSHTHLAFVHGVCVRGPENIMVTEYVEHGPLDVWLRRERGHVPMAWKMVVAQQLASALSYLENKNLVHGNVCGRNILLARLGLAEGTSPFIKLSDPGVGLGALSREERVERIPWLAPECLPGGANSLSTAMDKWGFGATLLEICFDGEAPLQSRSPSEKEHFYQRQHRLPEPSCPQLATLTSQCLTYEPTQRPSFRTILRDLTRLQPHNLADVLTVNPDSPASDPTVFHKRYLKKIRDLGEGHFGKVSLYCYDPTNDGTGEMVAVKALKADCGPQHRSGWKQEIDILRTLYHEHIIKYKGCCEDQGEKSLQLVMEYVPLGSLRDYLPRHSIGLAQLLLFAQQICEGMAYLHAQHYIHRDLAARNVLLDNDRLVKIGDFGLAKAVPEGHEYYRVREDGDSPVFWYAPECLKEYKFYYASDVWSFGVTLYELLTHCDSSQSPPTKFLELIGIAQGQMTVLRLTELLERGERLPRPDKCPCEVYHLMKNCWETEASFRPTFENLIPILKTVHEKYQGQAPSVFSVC

TYRO3 (human) = TYRO3 (human) (UniProt Q06418)
ULK1 (human) = ULK1 (human) (UniProt O75385)
YES1 (human) = YES1 (human) (UniProt P07947)

Sequence of CLK3 (human) (P49761 whole entry, looked up): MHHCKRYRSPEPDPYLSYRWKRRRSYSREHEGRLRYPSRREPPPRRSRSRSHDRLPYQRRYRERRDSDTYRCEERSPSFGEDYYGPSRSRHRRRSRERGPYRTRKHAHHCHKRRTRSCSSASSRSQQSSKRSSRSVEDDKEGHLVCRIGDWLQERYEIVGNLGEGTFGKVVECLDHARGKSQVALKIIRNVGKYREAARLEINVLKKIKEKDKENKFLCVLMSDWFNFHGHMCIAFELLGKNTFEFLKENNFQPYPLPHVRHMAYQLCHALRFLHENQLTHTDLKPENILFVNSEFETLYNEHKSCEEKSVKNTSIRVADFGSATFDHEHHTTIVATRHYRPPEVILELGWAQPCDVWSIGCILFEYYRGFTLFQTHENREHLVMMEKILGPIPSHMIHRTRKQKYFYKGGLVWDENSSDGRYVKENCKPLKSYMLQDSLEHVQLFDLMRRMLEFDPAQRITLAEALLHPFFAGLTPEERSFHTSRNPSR

Structure (SMILES): COc1cc(C(=O)N2CCC(N3CCN(C)CC3)CC2)ccc1Nc1ncc2c(n1)N(C)c1ccccc1C(=O)N2C
- kinase still bound, per cent of control (ANKK1 (human)): 100%
- kinase still bound, per cent of control (BRAF (human)): 81%
- residual activity (CDK5 (human)): 81%
- residual activity (CDK7 (human)): 86%
- residual activity (CDKL3 (human)): 83%
- kinase still bound, per cent of control (CLK3 (human)): 95%
- kinase still bound, per cent of control (CSNK1G1 (human)): 100%
- kinase still bound, per cent of control (DDR1 (human)): 100%
- kinase still bound, per cent of control [1]: 100%
- kinase still bound, per cent of control [2]: 95%
- kinase still bound, per cent of control (EPHA7 (human)): 97%
- kinase still bound, per cent of control (EPHA8 (human)): 80%
- kinase still bound, per cent of control (ERBB2 (human)): 100%
- kinase still bound, per cent of control (ERBB4 (human)): 100%
- kinase still bound, per cent of control (FGFR2 (human)): 95%
- kinase still bound, per cent of control (FRK (human)): 34%
- kinase still bound, per cent of control (GRK4 (human)): 86%
- kinase still bound, per cent of control (GRK7 (human)): 100%
- kinase still bound, per cent of control (MAP2K2 (human)): 99%
- kinase still bound, per cent of control (MAP3K3 (human)): 97%
- kinase still bound, per cent of control (MAPK1 (human)): 85%
- kinase still bound, per cent of control (NEK1 (human)): 83%
- kinase still bound, per cent of control (NEK11 (human)): 100%
- kinase still bound, per cent of control (PAK6 (human)): 98%
- kinase still bound, per cent of control (PIM1 (human)): 100%
- kinase still bound, per cent of control (PKN1 (human)): 100%
- kinase still bound, per cent of control (PTK2 (human)): 34%
- kinase still bound, per cent of control (RIOK1 (human)): 100%
- kinase still bound, per cent of control (RIPK1 (human)): 99%
- kinase still bound, per cent of control (RPS6KA1 KD1 (human)): 73%
- kinase still bound, per cent of control (RPS6KA3 KD1 (human)): 77%
- kinase still bound, per cent of control (RPS6KB1 (human)): 100%
- kinase still bound, per cent of control (SGK3 (human)): 95%
- kinase still bound, per cent of control (STK16 (human)): 62%
- kinase still bound, per cent of control (STK17B (human)): 93%
- kinase still bound, per cent of control (SYK (human)): 100%
- kinase still bound, per cent of control (TIE1 (human)): 100%
- kinase still bound, per cent of control [3]: 100%
- kinase still bound, per cent of control (TYRO3 (human)): 100%
- kinase still bound, per cent of control (ULK1 (human)): 80%
- kinase still bound, per cent of control (YES1 (human)): 100%
